Measured values published in patent US20260041679A1, “METHOD OF TREATING HYPERTENSION WITH THE ALDOSTERONE SYNTHASE INHIBITOR BAXDROSTAT” (CINCOR PHARMA, INC., priority 2022, published 2026).

Test system: patients with uHTN
Assay: Study 124 Part 2: 2 mg baxdrostat monotherapy for 4 weeks, SBP and safety
Format: in vivo, human
Details: for AESI, % / AESI, e - Number of events / AESI, n - Number of subjects / SAEs, % / SAEs, e - Number of events / SAEs, n - Number of subjects / TEAEs Drug-Related, % / TEAEs Drug-Related, e - Number of events / TEAEs Drug-Related, n - Number of subjects / TEAEs Leading to death, % / TEAEs Leading to death, e - Number of events / TEAEs Leading to death, n - Number of subjects / TEAEs Leading to dosing discontinuation, % / TEAEs Leading to dosing discontinuation, e - Number of events / TEAEs Leading to dosing discontinuation, n - Number of subjects / TEAEs Leading to study discontinuation, % / TEAEs Leading to study discontinuation, e - Number of events / TEAEs Leading to study discontinuation, n - Number of subjects / TEAEs, % / TEAEs, e - Number of events / TEAEs, n - Number of subjects: Part 2
Protocol: Study 124 is a double-blind, placebo-controlled, dose range finding, multicenter study conducted in patients with uHTN receiving background antihypertensive agent(s) that are either an ACEI or an ARB, an ACEI/ARB plus a thiazide diuretic, or an ACEI/ARB plus a calcium channel blocker. The study consists of two parts: Part 1 consists of an 8-week treatment period in which the patients are to be assigned to one of 4 dose groups in equal ratio testing 0.5 mg, 1 mg, and 2 mg baxdrostat effects compared to a placebo. Patients are to administer double-blind baxdrostat tablets once per day while they continue taking the background antihypertensive medications. After 8 weeks of double-blind treatment, patients were to enter part 2 of the study unless the patient was assigned to the 2 mg group and the SBP remains ≥130 mmHg. In part 2 of the study, all patients are to cease dosing with background antihypertensive medication and take only baxdrostat 2 mg dose as a monotherapy for 4 weeks.
The secondary objectives are to evaluate the change from baseline in mean seated DBP with each of the selected dose strengths of baxdrostat compared to placebo after 8 weeks of treatment (Part 1), the change from baseline in 24-hour urine aldosterone and serum aldosterone levels with each of the selected dose strengths of baxdrostat compared to placebo after 8 weeks of treatment (Part 1), the percentage of patients achieving a mean seated SBP<130 mmHg (“responders”) with each of the selected dose strengths of baxdrostat compared to placebo after 8 weeks; and the change from baseline in 24-hour urine renin and serum renin levels with baxdrostat compared to placebo after 8 weeks of treatment. Patients who have completed the Part 2 study through Week 12 or who were considered withdrawn at the end of Part 1 may be eligible to enter a separate open label extension study (Study 130). Part 2 is an exploratory phase of the trial designed to evaluate the effect of 4 weeks of monotherapy with 2 mg baxdrostat in this hypertensive population, but the major goal of the Part 2 period is to transition patients to a long-term open label safety extension study of baxdrostat at the highest dose likely to be used in the hypertension population.
In Part 2, background antihypertensive therapy was discontinued following Part 1, and patients took two mg Baxdrostat for four additional weeks. […] There were two cases of moderate hyperkalemia with K+>/=6.0 mEq/L in the 213 patients in Part 2; both patients had stopped diuretic at the start of Part 2 and developed transient moderate hyperkalemia within 2 weeks.

With CCC(=O)N[C@@H]1CCCc2c(-c3ccc4c(c3)CCC(=O)N4C)cncc21 [baxdrostat, (R)—N-(4-(1-methyl-2-oxo-1,2,3,4-tetrahydroquinolin-6-yl)-5,6,7,8-tetrahydroisoquinolin-8-yl) propionamide] the “SBP between the start and the end of the four weeks” value (2 mg only, after withdrawal of background medication) was “remained stable”, the safety and tolerability (2 mg, 213 patients who entered Part 2) was “safe and well-tolerated” and the “cases of moderate hyperkalemia with K+ >/=6.0 mEq/L” value (213 patients in Part 2) was “two cases”. For the same compound, the “treatment emergent SAEs” value (Part 2, 2 mg) was 4 events/3 patients with none deemed related to baxdrostat, the “AESI, %” value (0.5 mg to 2 mg, n = 63) was 0% and the “AESI, e - Number of events” value (0.5 mg to 2 mg, n = 63) was 0. For the same compound, the “AESI, n - Number of subjects” value (0.5 mg to 2 mg, n = 63) was 0, the “SAEs, %” value (0.5 mg to 2 mg, n = 63) was 0.0% and the “SAEs, e - Number of events” value (0.5 mg to 2 mg, n = 63) was 0. The “SAEs, n - Number of subjects” value (0.5 mg to 2 mg, n = 63) was 0, the “TEAEs Drug-Related, %” value (0.5 mg to 2 mg, n = 63) was 5.6% and the “TEAEs Drug-Related, e - Number of events” value (0.5 mg to 2 mg, n = 63) was 4. For the same compound, the “TEAEs Drug-Related, n - Number of subjects” value (from here on “TEAEs Drug-Related, n”) (0.5 mg to 2 mg, n = 63) was 3, the “TEAEs Leading to death, %” value (0.5 mg to 2 mg, n = 63) was 0.0% and the “TEAEs Leading to death, e - Number of events” value (0.5 mg to 2 mg, n = 63) was 0. For the same compound, the “TEAEs Leading to death, n - Number of subjects” value (0.5 mg to 2 mg, n = 63) was 0, the “TEAEs Leading to dosing discontinuation, %” value (0.5 mg to 2 mg, n = 63) was 0% and the “TEAEs Leading to dosing discontinuation, e - Number of events” value (0.5 mg to 2 mg, n = 63) was 0. For the same compound, the “TEAEs Leading to dosing discontinuation, n - Number of subjects” value (0.5 mg to 2 mg, n = 63) was 0, the “TEAEs Leading to study discontinuation, %” value (0.5 mg to 2 mg, n = 63) was 0.0% and the “TEAEs Leading to study discontinuation, e - Number of events” value (0.5 mg to 2 mg, n = 63) was 0. For the same compound, the “TEAEs Leading to study discontinuation, n - Number of subjects” value (0.5 mg to 2 mg, n = 63) was 0, the “TEAEs, %” value (0.5 mg to 2 mg, n = 63) was 16.7% and the “TEAEs, e - Number of events” value (0.5 mg to 2 mg, n = 63) was 15. For the same compound, the “TEAEs, n - Number of subjects” value (0.5 mg to 2 mg, n = 63) was 9, the “AESI, %” value (1 mg to 2 mg, n = 62) was 1.8% and the “AESI, e - Number of events” value (1 mg to 2 mg, n = 62) was 1. For the same compound, the “AESI, n - Number of subjects” value (1 mg to 2 mg, n = 62) was 1, the “SAEs, %” value (1 mg to 2 mg, n = 62) was 1.8% and the “SAEs, e - Number of events” value (1 mg to 2 mg, n = 62) was 2. For the same compound, the “SAEs, n - Number of subjects” value (1 mg to 2 mg, n = 62) was 1, the “TEAEs Drug-Related, %” value (1 mg to 2 mg, n = 62) was 8.8% and the “TEAEs Drug-Related, e - Number of events” value (1 mg to 2 mg, n = 62) was 6. The “TEAEs Drug-Related, n” value (1 mg to 2 mg, n = 62) was 5, the “TEAEs Leading to death, %” value (1 mg to 2 mg, n = 62) was 0.0% and the “TEAEs Leading to death, e - Number of events” value (1 mg to 2 mg, n = 62) was 0. For the same compound, the “TEAEs Leading to death, n - Number of subjects” value (1 mg to 2 mg, n = 62) was 0, the “TEAEs Leading to dosing discontinuation, %” value (1 mg to 2 mg, n = 62) was 3.5% and the “TEAEs Leading to dosing discontinuation, e - Number of events” value (1 mg to 2 mg, n = 62) was 3. For the same compound, the “TEAEs Leading to dosing discontinuation, n - Number of subjects” value (1 mg to 2 mg, n = 62) was 2, the “TEAEs Leading to study discontinuation, %” value (1 mg to 2 mg, n = 62) was 0.0% and the “TEAEs Leading to study discontinuation, e - Number of events” value (1 mg to 2 mg, n = 62) was 0. For the same compound, the “TEAEs Leading to study discontinuation, n - Number of subjects” value (1 mg to 2 mg, n = 62) was 0, the “TEAEs, %” value (1 mg to 2 mg, n = 62) was 21.1% and the “TEAEs, e - Number of events” value (1 mg to 2 mg, n = 62) was 26. For the same compound, the “TEAEs, n - Number of subjects” value (1 mg to 2 mg, n = 62) was 12, the “AESI, %” value (2 mg, n = 60) was 2.4% and the “AESI, e - Number of events” value (2 mg, n = 60) was 1. For the same compound, the “AESI, n - Number of subjects” value (2 mg, n = 60) was 1, the “SAEs, %” value (2 mg, n = 60) was 0% and the “SAEs, e - Number of events” value (2 mg, n = 60) was 0. For the same compound, the “SAEs, n - Number of subjects” value (2 mg, n = 60) was 0, the “TEAEs Drug-Related, %” value (2 mg, n = 60) was 0% and the “TEAEs Drug-Related, e - Number of events” value (2 mg, n = 60) was 0. For the same compound, the “TEAEs Drug-Related, n” value (2 mg, n = 60) was 0 and the “TEAEs Leading to death, %” value (2 mg, n = 60) was 0.0%.
